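Where inhibition never reached the appropriate level, the endpoint shown equals the highest concentration tested. Otherwise, values were interpolated linearly from a five-concentration, 48-hour dose response in 96-well plates. Abbreviation: GI50, concentration required for 50% inhibition of growth. At the TGI there is no net growth.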
Key:
Experiment in all cases: inhibition of tumour cell growth, NCI panel, 48 h
[1] = test system: HL-60(TB) leukemia
[2] = test system: HCC-2998 colon
[3] = test system: COLO 205 colon
[4] = test system: CCRF-CEM leukemia
[5] = test system: NCI-H522 lung
[6] = test system: SF-539 CNS
[7] = test system: PC-3 prostate
[8] = test system: NCI-H23 lung
[9] = test system: T-47D breast
[10] = test system: OVCAR-5 ovarian
[11] = test system: MOLT-4 leukemia
[12] = test system: KM12 colon
[13] = test system: NCI/ADR-RES ovarian
[14] = test system: HOP-62 NSCLC
[15] = test system: SN12C renal
[16] = test system: SW-620 colon
[17] = test system: UACC-62 melanoma
[18] = test system: ACHN renal
[19] = test system: NCI-H460 lung
[20] = test system: CAKI-1 renal
[21] = test system: SF-295 CNS
[22] = test system: MALME-3M melanoma
[23] = test system: RPMI-8226 leukemia
[24] = test system: HCT-15 colon
[25] = test system: K-562 leukemia
[26] = test system: OVCAR-8 ovarian
[27] = test system: TK-10 renal
[28] = test system: MDA-MB-435
[29] = test system: SF-268 CNS

CCCn1cnc2c(c1=N)C(c1ccc(Cl)cc1)c1sc3c(CC)cccc3c1O2 (configuration not stated)
GI50 [1]: 0.307 µM | TGI [1]: 1.66 µM | GI50 [2]: 1.75 µM | TGI [2]: 7.55 µM | GI50 [3]: 0.971 µM | TGI [3]: 3.93 µM | GI50 [4]: 0.37 µM | GI50 [5]: 0.407 µM | TGI [5]: 5.53 µM | GI50 [6]: 0.41 µM | TGI [6]: 1.9 µM | GI50 [7]: 0.564 µM | TGI [7]: 14.7 µM | GI50 [8]: 0.974 µM | TGI [8]: 11.3 µM | GI50 [9]: 0.581 µM | TGI [9]: 14.9 µM | GI50 [10]: 2.13 µM | TGI [10]: 13.3 µM | GI50 [11]: 0.644 µM | TGI [11]: 9.25 µM | GI50 [12]: 0.448 µM | TGI [12]: 13.4 µM | GI50 [13]: 0.419 µM | TGI [13]: 2.75 µM | GI50 [14]: 0.563 µM | TGI [14]: 8.93 µM | GI50 [15]: 1.58 µM | TGI [15]: 15 µM | GI50 [16]: 0.422 µM | TGI [16]: 12.8 µM | GI50 [17]: 0.515 µM | TGI [17]: 14.5 µM | GI50 [18]: 0.637 µM | TGI [18]: 17 µM | GI50 [19]: 0.392 µM | TGI [19]: 10.4 µM | GI50 [20]: 0.361 µM | TGI [20]: 15.6 µM | GI50 [21]: 0.385 µM | TGI [21]: 3.75 µM | GI50 [22]: 0.722 µM | TGI [22]: 20.3 µM | GI50 [23]: 0.471 µM | TGI [23]: 7.39 µM | GI50 [24]: 0.497 µM | TGI [24]: 10.4 µM | GI50 [25]: 0.328 µM | TGI [25]: 6.15 µM | GI50 [26]: 1.38 µM | TGI [26]: 13.4 µM | GI50 [27]: 7.62 µM | TGI [27]: 23.5 µM | GI50 [28]: 0.25 µM | TGI [28]: 1 µM | GI50 [29]: 0.82 µM | TGI [29]: 15.2 µM

— PubChem BioAssay (NCI)
